Literature values in patent publication US20040009212A1, “Mucoadhesive thermoresponsive medicament-carrier composition” (PHARMA POWER BIOTEC CO. LTD., priority 2002, published 2004).

System: leukoplakia
Settings: of 12 leukoplakia patients

In the case of `NCC(=O)CCC(=O)O` [ALA, 5-aminolevulinic acid], the patients having response (topical ALA in 20wt. % eucerin with arabic gum and paraffin, with PDT) is listed as 9 patients and the “patients having full response” value (topical ALA with PDT) is listed as 5 patients.
